USRE50083E1, “URAT1 inhibitor and use thereof” (Jiangsu Atom Bioscience and Pharmaceutical Co., Ltd., priority 2016, dated 2024)
Like-named read-outs stand apart in the source and are kept apart here.

Target: T1, hURAT1 (Homo sapiens, UniProt Q96S37)
T1 sequence (Q96S37 1-553): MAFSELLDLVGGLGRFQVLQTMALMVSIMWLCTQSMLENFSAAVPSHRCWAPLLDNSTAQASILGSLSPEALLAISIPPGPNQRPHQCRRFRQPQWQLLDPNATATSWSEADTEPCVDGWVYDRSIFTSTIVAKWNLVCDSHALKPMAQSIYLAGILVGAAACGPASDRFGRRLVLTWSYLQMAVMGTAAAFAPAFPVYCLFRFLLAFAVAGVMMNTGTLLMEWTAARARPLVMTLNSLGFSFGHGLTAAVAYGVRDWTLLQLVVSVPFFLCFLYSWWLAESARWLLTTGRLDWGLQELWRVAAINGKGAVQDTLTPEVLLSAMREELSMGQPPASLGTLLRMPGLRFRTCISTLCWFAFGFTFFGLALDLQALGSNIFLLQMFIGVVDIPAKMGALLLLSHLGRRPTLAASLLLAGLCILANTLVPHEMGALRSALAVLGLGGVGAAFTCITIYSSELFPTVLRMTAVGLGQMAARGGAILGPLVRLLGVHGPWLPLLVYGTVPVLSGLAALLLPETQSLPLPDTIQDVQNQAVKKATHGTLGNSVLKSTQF
Test: Inhibition assay of uric acid transport in HEK293-hURAT1 transfection cell line (14C-uric acid uptake)
Format: cell-based
Conditions: for inhibition at 0.5 µM: read-out: Inhibitory rates of uric acid transport, ±SD (%); for inhibitory effect on uric acid transport (in words): 500 nM, in comparison with the control drug benzbromarone
Protocol: 1. Construction of a HEK293 Cell Line with High Expression of hURAT1:
The plasmid pCMV6-hURAT1 was transfected into HEK293 cells, and then the stable strain was obtained by the G418 (final concentration of 500 μg/mL) resistance screening, which is the high expression of hURAT1 transporter membrane protein. […] The HEK293 cells are the human embryonic kidney cells with high transfection efficiency, and are a very commonly used engineering cell line for expressing exogenous genes.
2. To a coated 24-well plate was added 200 μl of 0.1 mg/mL poly-lysine per well and the plate was left overnight. Poly-lysine was removed from wells. The wells were cleaned thoroughly with sterile water and dried for use.
3. To the above coated 24-well plate was added HEK293-hURAT1 stable cells (2×10^5 cells per well). The cells were cultured at 37° C. under 5% CO2 for 3 days.
4. […] The solution was fully mixed to give HBSS (pH value: 7.4). The buffer was stored at −20° C.
5. The HBSS buffer was warmed to 37° C. in a water bath. Taken out the 24-well plate with HEK293-hURAT1 stable cells, removed the culture medium and washed cells with HBSS, then added 160 μL of HBSS and 20 μL test compound per well. The final concentration of tested compound per well is 500 nM. The blank control well contains only 180 μL of HBSS without tested compound. The plate was placed at room temperature for 10 min.
6. To each well was added 20 μL of 50 μM ^14C-Uric acid. The 24-well plate was placed at room temperature for 20 min.
7. The solution in each well was removed and the cells were washed with the pre-cooled HBSS buffer. To each well was added 0.2 M NaOH to dissolve the cells. The solution containing cell fragments was collected and the right amount of scintillation liquid was added.
8. The formula for calculating the inhibitory rate of uric acid transport for compounds was shown as below (Table 1), the CPM value of the tested compounds was represented by CPM(tested compound) and the CPM value of the blank control was represented by CPM(blank control).

[1] = 500 nM compound concentration, HEK293-hURAT1 transfection cell line, 14C-uric acid, mean of three tests ± SD
[2] = HEK293-hURAT1 transfection cell line

Compound	inhibition at 0.5 µM [1] [%]	inhibitory effect on uric acid transport (in words) [2]	inhibition at 0.5 µM [%]
CCc1nc2cc(C(F)(F)F)ccn2c1C(O)c1cc(Br)c(O)c(Br)c1 (stereo not shown) [Compound 41, 2,6-dibromo-4-{[2-ethyl-7-(trifluoromethyl)-imidazo[1,2-a]pyridine-3-yl]hydroxymethyl}phenol]	37.4 ± 5.52		
CCc1nc2cnccn2c1C(=O)c1cc(Br)c(O)c(Br)c1 [Compound 12, (3,5-dibromo-4-hydroxyphenyl)(2-ethylimidazo[1,2-a]-pyrazine-3-yl)methanone]	51.31 ± 0.16	very good inhibitory effects	
CCc1nn2ccccc2c1C(O)c1cc(Br)c(O)c(Br)c1 (stereo not shown) [Compound 35, 2,6-dibromo-4-[(2-ethylpyrazolo[1,5-a]pyridine-3-yl)-hydroxymethyl]phenol]	36.3 ± 1.79		
CCc1oc2ccccc2c1C(O)c1cc(Br)c(O)c(Br)c1 (stereo not shown) [Compound 42, 2,6-dibromo-4-[(2-ethylbenzofuran-3-yl)-hydroxymethyl]phenol]			37.4 ± 2.36
CCc1nc2ccccn2c1C(O)c1cc(C)c(O)c(Br)c1 (stereo not shown) [Compound 54, 2-bromo-4-(2-ethylimidazo[1,2-a]pyridine-3-yl)-hydroxymethyl-6-methylphenol]	42.9 ± 3.44		
CCc1nc2cnccn2c1C(O)c1cc(Br)c(O)c(Br)c1 (stereo not shown) [Compound 23, 2,6-dibromo-4-[(2-ethylimidazo[1,2-a]pyrazine-3-yl)-hydroxymethyl]phenol]	50.2 ± 1.02	very good inhibitory effects	
CCc1nc2sccn2c1C(O)c1cc(Br)c(O)c(Br)c1 (stereo not shown) [Compound 22, 2,6-dibromo-4-[(6-ethylimidazo[2,1-b]thiazole-5-yl)-hydroxymethyl]phenol]	48.2 ± 3.86		
CCc1nc2cc(OC)ccn2c1C(O)c1cc(Br)c(O)c(Br)c1 (stereo not shown) [Compound 64, 2,6-dibromo-4-{(2-ethyl-7-methoxyimidazo[1,2-a]-pyridine-3-yl)hydroxymethyl}phenol]	39.9 ± 5.34		
CCc1nc2ccccn2c1C(O)c1cc(Br)c(O)c(C#N)c1 (stereo not shown) [Compound 20, 3-bromo-5-[(2-ethylimidazo[1,2-a]pyridine-3-yl)-hydroxymethyl]-2-hydroxybenzonitrile]	62.1 ± 1.26	very good inhibitory effects	
CCc1nc2ccc(Br)cn2c1C(O)c1cc(Br)c(O)c(Br)c1 (stereo not shown) [Compound 40, 2,6-dibromo-4-[(6-bromo-2-ethylimidazo[1,2-a]-pyridine-3-yl)hydroxymethyl]phenol]	51.7 ± 2.43	very good inhibitory effects	
CCc1nc2sccn2c1C(=O)c1cc(Br)c(O)c(Br)c1 [Compound 8, (3,5-dibromo-4-hydroxyphenyl)(6-ethylimidazo[2,1-b]-thiazole-5-yl)methanone]	55.2 ± 3.94	very good inhibitory effects	
CCc1oc2ccccc2c1C(=O)c1cc(Br)c(O)c(Br)c1 [Benzbromarone, (3,5-dibromo-4-hydroxy-'phenyl)(2-ethylbenzofuran-3-yl)-methanone, reference compound]			54.8 ± 5.12
CCc1nc2scnn2c1C(=O)c1cc(Br)c(O)c(Br)c1 [Compound 49, (3,5-dibromo-4-hydroxyphenyl)(6-ethylimidazo-[2,1-b][1,3,4]thiadiazole-5-yl)methanone]	31.91 ± 0.23		
CCc1nc2ncccn2c1C(=O)c1cc(Br)c(O)c(Br)c1 [Compound 4, (3,5-dibromo-4-hydroxyphenyl)(2-ethylimidazo[1,2-a]-pyrimidine-3-yl)methanone]	50 ± 5.38		
CCc1nc2ccccn2c1C(O)c1ccc(O)c(C#N)c1 (stereo not shown) [Compound 21, 5-[(2-ethylimidazo[1,2-a]pyridine-3-yl)hydroxymethyl]-2-hydroxybenzonitrile]	33 ± 7.33		
CCc1oc2ccccc2c1C(OC)c1cc(Br)c(O)c(Br)c1 (stereo not shown) [Compound 58, 2,6-dibromo-4-[(2-ethylbenzofuran-3-yl)(methoxy)-methyl]phenol]	48.7 ± 5.61		
CCc1nc2ccc(F)cn2c1C(O)c1cc(F)c(O)c(Br)c1 (stereo not shown) [Compound 28, 2-bromo-4-[(2-ethyl-6-fluoroimidazo[1,2-a]pyridine-3-yl)hydroxymethyl]-6-fluorophenol]	41.2 ± 1.92		
